EC50 data for four compounds are collected here from patent US8440830B2, “Tetrahydro-fused pyridines as histone deacetylase inhibitors” (4SC AG, priority 2007, dated 2013).

Where two headings read alike, the source gives them in different places.

In this assay the test system is histone H3 hyperacetylation in HeLa cervical carcinoma cells. The experiment in a line: Cellular histone H3 hyperacetylation assay. In kind it is cell-based. Conditions: Homo sapiens, 24 h treatment. In short, it runs like this: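 HeLa cells treated with compound for 24 h, then fixed, permeabilized and immunostained for acetylated histone H3 (K1-20) with an Alexa Fluor 488 secondary. High-content imaging scored the percentage of cells with nuclear fluorescence; EC50 from concentration-effect curves by non-linear regression.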

Setting [1] is: read-out: EC50, induction of histone H3 hyperacetylation.
The mark [2] stands for this setting: read-out: −lg EC50, induction of histone H3 hyperacetylation.

Take `Nc1ccccc1NC(=O)c1nc2c(s1)CN(C(=O)Nc1ccc(-c3ccccc3)cc1)CC2` [Example 1, N^2-(2-aminophenyl)-N5-biphenyl-4-yl-6,7-dihydro[1,3]thiazolo[5,4-c]pyridine-2,5(4H)-dicarboxamide]: the EC50 (as a rule, the midpoint of the concentration-response curve) under setting [1] lay in the range of 0.15 to 15 µM and the EC50 under setting [2] was in the range of 0.251 to 15.8 µM.

Consider `CN(C)c1ccc(NC(=O)N2CCc3nc(C(=O)Nc4ccccc4N)sc3C2)cc1` [Example 2, N^2-(2-aminophenyl)-N5-[4-(dimethylamino)phenyl]-6,7-dihydro[1,3]thiazolo[5,4-c]pyridine-2,5(4H)-dicarboxamide], for which the EC50 by setting is: under setting [1], 0.15 to 15 µM; under setting [2], 0.251 to 15.8 µM.

In the case of `COc1ccc(NC(=O)N2CCc3nc(C(=O)Nc4ccccc4N)sc3C2)cc1` [Example 3, N^2-(2-aminophenyl)-N5-(4-methoxyphenyl)-6,7-dihydro[1,3]thiazolo[5,4-c]pyridine-2,5(4H)-dicarboxamide], the concentration for a half-maximal effect (EC50) under setting [1] fell in the range of 0.15 to 15 µM and the EC50 under setting [2] fell in the range of 0.251 to 15.8 µM.

Take `Nc1ccccc1NC(=O)c1nc2c(s1)CN(C(=O)Nc1cnc3ccccc3c1)CC2` [Example 12, N^2-(2-aminophenyl)-N5-quinolin-3-yl-6,7-dihydro[1,3]thiazolo[5,4-c]pyridine-2,5(4H)-dicarboxamide]: the EC50 was in the range of 0.15 to 15 µM under setting [1] and 0.251 to 15.8 µM under setting [2].
